Data from US9951065B2 (Gilead Sciences, Inc., priority 2015, dated 2018).

Molecular target: T1, IDO1 (Homo sapiens, UniProt P14902)
T1 construct: HeLa cells were treated with a test compound in the presence of IFNγ, which induces IDO1 expression; host or cells: H1-HeLa cells, IDO1 induced with IFNγ
Assay: Cell-based (HeLa) assay for measurement of IDO1 inhibition (kynurenine levels in supernatant after IFNγ induction)
Details: HeLa cells, geometric mean of a minimum of four determinations
Summary of the method: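 IDO1 activity is read as kynurenine released into the medium, detected with Ehrlich's reagent (p-dimethylaminobenzaldehyde) at 480 nm after TCA treatment. HeLa cells were exposed 48 h to compounds in 0.5% DMSO alongside IFNγ induction. Values normalized to no-IFNγ and IFNγ controls; four-parameter EC50 given as geometric mean of ≥4 determinations.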

[1] = IFNγ-induced IDO1, kynurenine in supernatant after 48 hour incubation
[2] = IFNγ-induced IDO1, kynurenine in supernatant, 48 hour incubation

T1 sequence (P14902 whole entry): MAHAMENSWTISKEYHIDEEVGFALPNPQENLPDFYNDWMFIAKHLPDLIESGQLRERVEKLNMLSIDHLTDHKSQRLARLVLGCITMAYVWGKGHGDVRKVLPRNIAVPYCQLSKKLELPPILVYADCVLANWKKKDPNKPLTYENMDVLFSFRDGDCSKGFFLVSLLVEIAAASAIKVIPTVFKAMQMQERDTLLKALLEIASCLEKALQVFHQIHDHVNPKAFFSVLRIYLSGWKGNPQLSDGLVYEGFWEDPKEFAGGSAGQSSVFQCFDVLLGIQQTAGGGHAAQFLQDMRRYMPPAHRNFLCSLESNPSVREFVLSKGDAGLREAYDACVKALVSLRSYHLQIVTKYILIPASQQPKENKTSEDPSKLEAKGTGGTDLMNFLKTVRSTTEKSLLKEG

SMILES | EC50 [1] | EC50 [2]
O/N=C(\Nc1ccc(F)c(Cl)c1)c1ccnc2nc(CNC3CCOCC3)[nH]c12 [Example 132, N-(3-Chloro-4-fluorophenyl)-N′-hydroxy-2-(((tetrahydro-2H-pyran-4-yl)amino)methyl)-1H-imidazo[4,5-b]pyridine-7-carboximidamide] | 3430 nM | 
O/N=C(\Nc1ccc(F)c(Cl)c1)c1ccnc2nc(CCN3CCC(O)CC3)[nH]c12 [Example 262, N-(3-chloro-4-fluorophenyl)-N′-hydroxy-2-(2-(4-hydroxypiperidin-1-yl)ethyl)-1H-imidazo[4,5-b]pyridine-7-carboximidamide] | 3240 nM | 
O/N=C(\Nc1ccc2c(c1)OC(F)(F)O2)c1ccnc2nc[nH]c12 [Example 74, N-(2,2-Difluorobenzo[d][1,3]dioxol-5-yl)-N′-hydroxy-1H-imidazo[4,5-b]pyridine-7-carboximidamide] | 923 nM | 
O/N=C(\Nc1cc(F)cc(Br)c1)c1ccnc2nc[nH]c12 [Example 72, N-(3-Bromo-5-fluorophenyl)-N′-hydroxy-1H-imidazo[4,5-b]pyridine-7-carboximidamide] | 280 nM | 
O/N=C(\Nc1ccc(F)c(Cl)c1)c1ccnc2nc(CNCC3CCOC3)[nH]c12 (stereo not drawn) [Example 135, N-(3-Chloro-4-fluorophenyl)-N′-hydroxy-2-((((tetrahydrofuran-3-yl)methyl)amino)methyl)-1H-imidazo[4,5-b]pyridine-7-carboximidamide] | 5110 nM | 
O/N=C(\Nc1ccc(F)c(Cl)c1)c1cc(F)c(F)c2nc(NCCN3CCCC3)[nH]c12 [Example 41, N-(3-Chloro-4-fluorophenyl)-4,5-difluoro-N′-hydroxy-2-((2-(pyrrolidin-1-yl)ethyl)amino)-1H-benzo[d]imidazole-7-carboximidamide] | 240 nM | 
O/N=C(\Nc1ccc(F)c(Cl)c1)c1ccnc2nc(CNCC3CCCCO3)[nH]c12 (stereo not drawn) [Example 127, N-(3-Chloro-4-fluorophenyl)-N′-hydroxy-2-((((tetrahydro-2H-pyran-2-yl)methyl)amino)methyl)-1H-imidazo[4,5-b]pyridine-7-carboximidamide] | 2360 nM | 
O/N=C(\Nc1ccc(F)c(Cl)c1)c1cc(F)c(F)c2nc(N[C@@H]3CCCN(C4COC4)C3)[nH]c12 [Example 465, (R)-N-(3-chloro-4-fluorophenyl)-4,5-difluoro-N′-hydroxy-2-((1-(oxetan-3-yl)piperidin-3-yl)amino)-1H-benzo[d]imidazole-7-carboximidamide] |  | 957 nM
CN1CCOC[C@H]1CNc1nc2nccc(/C(=N/O)Nc3ccc(F)c(Cl)c3)c2[nH]1 [Example 482, (R)-N-(3-chloro-4-fluorophenyl)-N′-hydroxy-2-(((4-methylmorpholin-3-yl)methyl)amino)-1H-imidazo[4,5-b]pyridine-7-carboximidamide] |  | 2650 nM
O/N=C(\Nc1ccc(F)c(Cl)c1)c1ccnc2nc(NCCC3CCOCC3)[nH]c12 [Example 224, N-(3-chloro-4-fluorophenyl)-N′-hydroxy-2-((2-(tetrahydro-2H-pyran-4-yl)ethyl)amino)-1H-imidazo[4,5-b]pyridine-7-carboximidamide] | 3740 nM | 
O/N=C(\Nc1ccc(F)c(Cl)c1)c1ccnc2nc(-c3ncc[nH]3)[nH]c12 [Example 149, N-(3-Chloro-4-fluorophenyl)-N′-hydroxy-2-(1H-imidazol-2-yl)-1H-imidazo[4,5-b]pyridine-7-carboximidamide] | 529 nM | 
CCc1nc2nccc(/C(=N/O)Nc3ccc(F)c(Cl)c3)c2[nH]1 [Example 108, N-(3-Chloro-4-fluorophenyl)-2-ethyl-N′-hydroxy-1H-imidazo[4,5-b]pyridine-7-carboximidamide] | 3190 nM | 
O/N=C(\Nc1ccc(F)c(Cl)c1)c1ccnc2nc(-c3cccnc3)[nH]c12 [Example 147, N-(3-Chloro-4-fluorophenyl)-N′-hydroxy-2-(pyridin-3-yl)-1H-imidazo[4,5-b]pyridine-7-carboximidamide] | 1930 nM | 
O=S(=O)(NCCNc1nc2c(F)c(F)cc(/C(=N/O)Nc3ccc(F)c(Cl)c3)c2[nH]1)C1CC1 [Example 336, N-(3-chloro-4-fluorophenyl)-2-((2-(cyclopropanesulfonamido)ethyl)amino)-4,5-difluoro-N′-hydroxy-1H-benzo[d]imidazole-7-carboximidamide] |  | > 10000 nM
O/N=C(\Nc1ccc(F)c(Cl)c1)c1cc(F)c(F)c2nc[nH]c12 [Example 10, N-(3-chloro-4-fluorophenyl)-4,5-difluoro-N′-hydroxy-1H-benzo[d]imidazole-7-carboximidamide] | 438 nM | 
O/N=C(\Nc1ccc(F)c(Cl)c1)c1ccnc2nc(CCN3CC[C@H](O)C3)[nH]c12 [Example 261, (S)—N-(3-chloro-4-fluorophenyl)-N′-hydroxy-2-(2-(3-hydroxypyrrolidin-1-yl)ethyl)-1H-imidazo[4,5-b]pyridine-7-carboximidamide] | 3450 nM | 
CC(C)(O)c1nc2nccc(/C(=N/O)Nc3ccc(F)c(Cl)c3)c2[nH]1 [Example 175, N-(3-Chloro-4-fluorophenyl)-N′-hydroxy-2-(2-hydroxypropan-2-yl)-1H-imidazo[4,5-b]pyridine-7-carboximidamide] | 6420 nM | 

SMILES | EC50 [1] | EC50 [2]
O/N=C(\Nc1ccc(F)c(Cl)c1)c1cc(F)c(F)c2nc(NC3CNCCOC3)[nH]c12 (stereo not drawn) [Example 477, 2-((1,4-oxazepan-6-yl)amino)-N-(3-chloro-4-fluorophenyl)-4,5-difluoro-N′-hydroxy-1H-benzo[d]imidazole-7-carboximidamide] |  | 1520 nM
O/N=C(\Nc1ccc(F)c(Cl)c1)c1ccnc2nc(C(O)C3CC3)[nH]c12 (stereo not drawn) [Example 174, N-(3-Chloro-4-fluorophenyl)-2-(cyclopropyl(hydroxy)methyl)-N′-hydroxy-1H-imidazo[4,5-b]pyridine-7-carboximidamide] | 7090 nM | 
O/N=C(\Nc1ccc(F)c(Cl)c1)c1ccnc2nc(CNCc3ccncc3)[nH]c12 [Example 133, N-(3-Chloro-4-fluorophenyl)-N′-hydroxy-2-(((pyridin-4-ylmethyl)amino)methyl)-1H-imidazo[4,5-b]pyridine-7-carboximidamide] | 3710 nM | 
O/N=C(\Nc1cccc(OC(F)(F)F)c1)c1ccnc2nc[nH]c12 [Example 99, N′-Hydroxy-N-(3-(trifluoromethoxy)phenyl)-1H-imidazo[4,5-b]pyridine-7-carboximidamide] | 602 nM | 
OCc1nc2c(/C(=N/O)Nc3ccc(F)c(Cl)c3)cc(F)c(F)c2[nH]1 [Example 46, N-(3-Chloro-4-fluorophenyl)-4,5-difluoro-N′-hydroxy-2-(hydroxymethyl)-1H-benzo[d]imidazole-7-carboximidamide] | 835 nM | 
O/N=C(\Nc1ccc(F)c(Cl)c1)c1cc(F)c(F)c2nc(NC3COCCC3N3CCCC3)[nH]c12 (stereo not drawn) [Example 473, N-(3-chloro-4-fluorophenyl)-4,5-difluoro-N′-hydroxy-2-((4-(pyrrolidin-1-yl)tetrahydro-2H-pyran-3-yl)amino)-1H-benzo[d]imidazole-7-carboximidamide] |  | 1030 nM
CN(C)CCNc1nc2c(F)c(F)cc(/C(=N/O)Nc3ccc(F)c(Br)c3)c2[nH]1 [Example 432, N-(3-bromo-4-fluorophenyl)-2-((2-(dimethylamino)ethyl)amino)-4,5-difluoro-N′-hydroxy-1H-benzo[d]imidazole-7-carboximidamide] |  | 253 nM
CN(C)CCc1nc2c(/C(=N/O)Nc3cccc(Br)c3)cc(F)c(F)c2[nH]1 [Example 55, N-(3-Bromophenyl)-2-(2-(dimethylamino)ethyl)-6,7-difluoro-N′-hydroxy-1H-benzo[d]imidazole-4-carboximidamide] | 379 nM | 
CC(CN(C)C)c1nc2nccc(/C(=N/O)Nc3ccc(F)c(Cl)c3)c2[nH]1 (stereo not drawn) [Example 326, N-(3-chloro-4-fluorophenyl)-2-(1-(dimethylamino)propan-2-yl)-N′-hydroxy-1H-imidazo[4,5-b]pyridine-7-carboximidamide] |  | 4050 nM
OCc1nc2nccc(/C(=N/O)Nc3ccc(F)c(Cl)c3)c2[nH]1 [Example 177, N-(3-Chloro-4-fluorophenyl)-N′-hydroxy-2-(hydroxymethyl)-1H-imidazo[4,5-b]pyridine-7-carboximidamide] | 1670 nM | 
CN(C)CCc1nc2c(/C(=N/O)Nc3ccc(F)c(Cl)c3)cc(F)c(F)c2[nH]1 [Example 53, N-(3-Chloro-4-fluorophenyl)-2-(2-(dimethylamino)ethyl)-6,7-difluoro-N′-hydroxy-1H-benzo[d]imidazole-4-carboximidamide] | 916 nM | 
CN(C)[C@@H]1CCC[C@H]1Nc1nc2c(F)c(F)cc(/C(=N/O)Nc3ccc(F)c(Cl)c3)c2[nH]1 [Example 486, N-(3-chloro-4-fluorophenyl)-2-(((1R,2R)-2-(dimethylamino)cyclopentyl)amino)-4,5-difluoro-N′-hydroxy-1H-benzo[d]imidazole-7-carboximidamide] |  | 284 nM
COc1cc(N/C(=N\O)c2ccnc3nc[nH]c23)ccc1F [Example 106, N-(4-Fluoro-3-methoxyphenyl)-N′-hydroxy-1H-imidazo[4,5-b]pyridine-7-carboximidamide] | 5540 nM | 
O/N=C(\Nc1cccc(Cl)c1)c1ccnc2nc[nH]c12 [Example 82, N-(3-Chlorophenyl)-N′-hydroxy-1H-imidazo[4,5-b]pyridine-7-carboximidamide] | 160 nM | 
O/N=C(\Nc1ccc(F)c(Cl)c1)c1ccnc2nc(CNCc3cnccn3)[nH]c12 [Example 134, N-(3-Chloro-4-fluorophenyl)-N′-hydroxy-2-(((pyrazin-2-ylmethyl)amino)methyl)-1H-imidazo[4,5-b]pyridine-7-carboximidamide] | 3990 nM | 
NCCc1nc2c(F)c(F)cc(/C(=N/O)Nc3ccc(F)c(Cl)c3)c2[nH]1 [Example 211, 2-(2-aminoethyl)-N-(3-chloro-4-fluorophenyl)-4,5-difluoro-N′-hydroxy-1H-benzo[d]imidazole-7-carboximidamide] | > 10000 nM | 
